Tests used:
[1] = tested on: Human peripheral blood mononuclear cells; assay: Human Concanavalin-A Proliferation Assay (Con HU Assay); format: cell-based; conditions: Homo sapiens, PBMC, concanavalin-A stimulated human PBMC; for inhibition at 1 µM / inhibition at 100 µM / inhibition at 10 µM: 72 h, 3 days, read-out: % Inhibition of proliferation (at concentrations of 1,10, or 100 μm); for inhibition at 1 µM: concentration 1 μm (in parentheses in the cell); for inhibition at 100 µM: concentration 100 μm (in parentheses in the cell); for IC50: tritiated thymidine; for inhibition at 10 µM: concentration 10 μm (in parentheses in the cell)
Summary of the method: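 Proliferation read as tritiated thymidine uptake (0.5 μCi/well, 6 h pulse on day 3) in human PBMC cultured 3 days with 2.5 μg/ml (final) concanavalin-A. Cells, 50,000 per well in supplemented RPMI 1640 with 10% FBS, received compound 15 min before mitogen.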

SMILES | melting point [°C] | inhibition at 1 µM [1] [%] | inhibition at 100 µM [1] [%] | IC50 [1] [nM] | inhibition at 10 µM [1] [%]
Cc1nnsc1C(=O)Nc1ccc(-n2nc(C(F)(F)F)cc2O)cc1 [Example 288, N-[4-[5-hydroxy-3-(trifluoromethyl)-1H-pyrazol-1-yl]phenyl]-4-methyl-1,2,3-thiadiazole-5-carboxamide] | 177 to 179 | 16 | – | – | –
O=C(Nc1ccc(-n2nc(C(F)(F)F)cc2C(F)(F)F)cc1)c1ccccc1Cl [Example 91, N-[4-[3,5-bis(trifluoromethyl)-1H-pyrazol-1-yl]phenyl]-2-chlorobenzamide] | 155 to 157 | – | 99 | 138 | –
O=C(Nc1ccc(-n2nc(C3CCCO3)cc2C(F)(F)F)cc1)c1ccncc1F (stereo not drawn) [Example 345, 3-fluoro-N-(4-(3-tetrahydro-2-furanyl-5-(trifluoromethyl)-1H-pyrazol-1-yl)phenyl)isonicotinamide] | 116 to 118 | – | – | 273 | –
Cc1ccc(C(=O)Nc2ccc(-n3nc(C(F)(F)F)cc3C(F)(F)F)cc2)c(Cl)n1 [Example 151, N-[4-[3,5-bis(trifluoromethyl)-1H-pyrazol-1-yl]phenyl]-2-chloro-6-methyl-3-pyridinecarboxamide] | 155 to 156 | – | 99 | 295 | –
O=C(Cc1ccc(Cl)cc1)Nc1cccc(-n2nc(C(F)(F)F)cc2C(F)(F)F)c1 [Example 197, N-[3-[3,5-bis(trifluoromethyl)-1H-pyrazol-1-yl]phenyl]-4-chlorobenzeneacetamide] | 209 to 211 | 1 | – | – | –
Cc1nnsc1C(=O)Nc1ccc(-n2nc(C(F)(F)F)cc2C(F)(F)F)c(C(F)(F)F)c1 [Example 276, N-[4-[3,5-bis(trifluoromethyl)-1H-pyrazol-1-yl]-3-(trifluoromethyl)phenyl]-4-methyl-1,2,3-thiadiazole-5-carboxamide] | 134 to 136 | 16 | – | – | –
O=C(Nc1ccc(-n2nc(C(F)(F)F)cc2C(F)(F)F)cc1)Nc1ccc(Cl)cc1[N+](=O)[O-] [Example 48, N-[4-[3,5-bis(trifluoromethyl)-1H-pyrazol-1-yl]phenyl]-N′-(4-chloro-2-nitrophenyl)urea] | 225 to 227 | 85 | – | 468 | –
CC1CC1C(=O)Nc1ccc(-n2nc(C(F)(F)F)cc2C(F)(F)F)cc1 (stereo not drawn) [Example 7, N-[4-[3,5-bis(trifluoromethyl)-1H-pyrazol-1-yl]phenyl]-2-methylcyclopropanecarboxamide] | 172 to 173 | – | – | 403 | 97
O=C(Nc1ccc(-n2nc(C(F)(F)F)cc2OC(F)F)cc1)c1ccncc1F [Example 327, N-(4-(5-(difluoromethoxy)-3-(trifluoromethyl)-1H-pyrazol-1-yl)phenyl)-3-fluoroisonicotinamide] | 135 to 136 | – | – | 82 | –
O=C1CCC(C(=O)Nc2ccc(-n3nc(C(F)(F)F)cc3C(F)(F)F)cc2)O1 (stereo not drawn) [Example 254, N-[4-[3,5-bis(trifluoromethyl)-1H-pyrazol-1-yl]phenyl]tetrahydro-5-oxo-2-furancarboxamide] | 172 to 173 | 9 | – | – | –
O=C(Nc1ccc(-n2nc(C(F)(F)F)cc2C(F)(F)F)cc1)c1ccc(O)cc1 [Example 73, N-[4-[3,5-bis(trifluoromethyl)-1H-pyrazol-1-yl]phenyl]-4-hydroxybenzamide] | > 245 | – | – | 388 | 93
O=C(Nc1ccc(-n2nc(C(F)(F)F)cc2C(F)(F)F)cc1)c1ccc(F)c(Cl)c1 [Example 210, N-[4-[3,5-bis(trifluoromethyl)-1H-pyrazol-1-yl]phenyl]-3-chloro-4-fluorobenzamide] | 138 to 139 | – | – | 239 | 100
O=C(Nc1ccc(-n2nc(C(F)(F)F)cc2C(F)(F)F)cc1)c1ccccc1O [Example 103, N-[4-[3,5-bis(trifluoromethyl)-1H-pyrazol-1-yl]phenyl]-2-hydroxybenzamide] | 173 to 175 | 14 | – | – | –
O=C(Nc1ccc(-n2nc(C(F)(F)F)cc2C(F)(F)F)cc1)c1c(Cl)ccc([N+](=O)[O-])c1Cl [Example 216, N-[4-[3,5-bis(trifluoromethyl)-1H-pyrazol-1-yl]phenyl]-2,6-dichloro-3-nitrobenzamide] | 160 to 161 | – | – | 267 | 100
Cc1nc(C)c(C(=O)Nc2ccc(-n3nc(C(F)(F)F)cc3C(F)(F)F)cc2)s1 [Example 105, N-[4-[3,5-bis(trifluoromethyl)-1H-pyrazol-1-yl]phenyl]-2,4-dimethyl-5-thiazolecarboxamide] | 158 to 159 | – | – | 387 | 100
O=C(Nc1ccc(-n2nc(C(F)(F)F)cc2C(F)(F)F)cc1)c1ccc(Cl)cc1[N+](=O)[O-] [Example 117, N-[4-[3,5-bis(trifluoromethyl)-1H-pyrazol-1-yl]phenyl]-4-chloro-2-nitrobenzamide] | 163 to 166 | – | 100 | 158 | –
O=C(Nc1ccc(-n2nc(C(F)(F)F)cc2C(F)(F)F)cc1)c1ccc(F)c(F)c1F [Example 226, N-[4-[3,5-bis(trifluoromethyl)-1H-pyrazol-1-yl]phenyl]-2,3,4-trifluorobenzamide] | 122 to 124 | – | – | 43 | 100
O=C(Nc1ccc(-n2nc(C(F)(F)F)cc2C(F)(F)F)cc1)c1csc([N+](=O)[O-])c1 [Example 257, N-[4-[3,5-bis(trifluoromethyl)-1H-pyrazol-1-yl]phenyl]-5-nitro-3-thiophenecarboxamide] | 164 to 165 | – | – | 387 | 100
O=C(Nc1ccc(-n2nc(C(F)(F)F)cc2C(F)(F)F)cc1)c1cc(F)c(F)cc1F [Example 228, N-[4-[3,5-bis(trifluoromethyl)-1H-pyrazol-1-yl]phenyl]-2,4,5-trifluorobenzamide] | 109 to 111 | – | – | 147 | 99
Cc1noc(C)c1C(=O)Nc1ccc(-n2ccc(C(F)(F)F)n2)cc1 [Example 287, 3,5-dimethyl-N-[4-[3-(trifluoromethyl)-1H-pyrazol-1-yl)phenyl]-4-isoxazolecarboxamide] | 177 to 178 | 24 | – | – | –
Cc1ccoc1C(=O)Nc1ccc(-n2nc(C(F)(F)F)cc2C(F)(F)F)cc1 [Example 252, N-[4-[3,5-bis(trifluoromethyl)-1H-pyrazol-1-yl]phenyl]-3-methyl-2-furancarboxamide] | 119 to 120 | 36 | – | – | –
COc1cc(C(F)(F)F)nn1-c1ccc(NC(=O)c2ccccc2F)cc1 [Example 313, 2-fluoro-N-(4-(5-methoxy-3-(trifluoromethyl)-1H-pyrazol-1-yl)phenyl)benzamide] | 167 to 168 | – | – | 66 | –
N#Cc1cccc(NC(=O)c2ccc(-n3nc(C(F)(F)F)cc3C(F)(F)F)cc2)c1 [Example 186, 4-[3,5-Bis(trifluoromethyl)-1H-pyrazol-1-yl]-N-(3-cyanophenyl)benzamide] | 195 to 196 | 14 | – | – | –
CCCCCCOc1ccc(C(=O)Nc2ccc(-n3nc(C(F)(F)F)cc3C(F)(F)F)cc2)cc1 [Example 74, N-[4-[3,5-bis(trifluoromethyl)-1H-pyrazol-1-yl]phenyl]-4-(hexyloxy)benzamide] | 153 to 155 | – | 83 | 22800 | –
COc1cccc(C(=O)Nc2ccc(-n3nc(C(F)(F)F)cc3C(F)(F)F)cc2)c1 [Example 145, N-[4-[3,5-bis(trifluoromethyl)-1H-pyrazol-1-yl]phenyl]-3-methoxybenzamide] | 169 to 172 | – | 94 | 1590 | –
O=C(Nc1ccc(-n2nc(C(F)(F)F)cc2C(F)(F)F)cc1)c1ccc(F)cc1F [Example 135, N-[4-[3,5-bis(trifluoromethyl)-1H-pyrazol-1-yl]phenyl]-2,4-difluorobenzamide] | 126 to 128 | – | 100 | 207 | –
CCCCCCC(=O)Nc1ccc(-n2nc(C(F)(F)F)cc2C(F)(F)F)cc1 [Example 56, N-[4-[3,5-bis(trifluoromethyl)-1H-pyrazol-1-yl]phenyl]heptanamide] | 88 to 90 | 32 | – | – | –
O=C(Nc1ccc(-n2nc(C(F)(F)F)cc2C(F)(F)F)cc1)C1CC=CCC1 (stereo not drawn) [Example 29, N-[4-[3,5-bis(trifluoromethyl)-1H-pyrazol-1-yl]phenyl]-3-cyclohexene-1-carboxamide] | 177 to 178 | – | – | 51 | 100
Cc1ccc(NC(=O)Nc2ccc(-n3nc(C(F)(F)F)cc3C(F)(F)F)cc2)c([N+](=O)[O-])c1 [Example 43, N-[4-[3,5-bis(trifluoromethyl)-1H-pyrazol-1-yl]phenyl]-N′-(4-methyl-2-nitrophenyl)urea] | 213 to 214 | – | – | 354 | 98
Cc1ccc(C(=O)Nc2ccc(-n3nc(C(F)(F)F)cc3C(F)(F)F)cc2)cc1 [Example 100, N-[4-[3,5-bis (trifluoromethyl)-1H-pyrazol-1-yl]phenyl]-4-methylbenzamide] | 225 to 226 | – | 75 | 2150 | –
